From patent EP0313846B1, “Method for controlling chronic respiratory disease, and necrotic enteritis in avian species” (AMERICAN CYANAMID COMPANY, priority 1987, dated 1989)
Values after ≈ are worked out from the molar mass of the structure shown. Like-named read-outs stand apart in the source and are kept apart here.

Columns and labels:
[1] = system: Streptococcus pyogenes C203; test: In vivo antibacterial activity in infected mice (Table III); parameters: species or system female CD-1 mice; conditions: S. pyogenes C203, mice, 30 minutes before infection
Streptococcus agalactiae = test: Minimum inhibitory concentration by agar dilution (Table V); format: cell-based; conditions: Streptococcus agalactiae (4 strains tested)
Treponema hyodysenteriae [2] = test: T. hyodysenteriae disk test (primary in vitro disk diffusion test); format: cell-based; conditions: disks soaked in 2.5 mg/ml solution, zones of inhibited hemolysis
Salmonella choleraesuis = test: Minimum inhibitory concentration by agar dilution (Table V); format: cell-based; conditions: Salmonella choleraesuis (2 strains tested)
[3] = system: Bordetella bronchiseptica; test: as above; format: cell-based; conditions: Bordetella bronchiseptica (4 strains tested)
Pasteurella haemolytica = test: as above; format: cell-based; conditions: Pasteurella haemolytica (3 strains tested)
[4] = system: Clostridium perfringens type C; format: in vivo, broiler chicks; conditions: infected chicks, treatment mean; for Lesion Scores: intestinal lesion score 0-4, day 19
Mycoplasma gallisepticum = test: Treatment of Mycoplasma gallisepticum caused chronic respiratory disease in poultry; format: in vivo; conditions: for Final Mean Body Weight (g) of Survivors / Overall % Mortality / Overall Feed-to-Gain: 7 days pre- and 7 days postchallenge; for Final Mean Body Weight (g) of Survivors / Overall % Mortality / Overall Feed-to-Gain / Mean Air Sac Lesion Scores: M. gallisepticum challenged birds; for Mean Air Sac Lesion Scores: score 0-3
Procedure: This study is conducted to evaluate the efficacy of antibiotic LL-E19020α against Mycoplasma gallisepticum caused chronic respiratory disease in poultry. The antibiotic is fed continuously at 10 and 50 g/ton for 7 days pre- and 7 days postchallenge. Birds similarly fed a diet containing 100 g/ton chlortetracycline serve as a positive control group. Infected and noninfected, nonmedicated control groups are also included. After 7 days on respective treatment diets, birds are challenged with M. gallisepticum (MG) into the right and left post-thoracic air sacs. The air sacs are cultured for the presence of Mycoplasma from all birds dying postchallenge. The air sacs of all birds are scored based on gross lesions upon necropsy at death or at study end. Survivors at study end are bled prior to necropsy for Mycoplasma gallisepticum serology testing. Body weight and feed intake measurements are made at specified intervals during the study.

Staphylococcus aureus = test: Minimum inhibitory concentration by agar dilution (Table V); format: cell-based; conditions: Staphylococcus aureus (7 strains tested)
Streptococcus uberis = test: as above; format: cell-based; conditions: Streptococcus uberis (1 strain tested)
[5] = system: Staphylococcus aureus Smith; test: In vivo antibacterial activity in infected mice (Table III); parameters: species or system female CD-1 mice; conditions: S. aureus Smith, 30 minutes before infection
[6] = system: Pasteurella haemolytica 30660; test: Pasteurella disk test (primary in vitro disk diffusion test); format: cell-based; conditions: disks soaked in 2.5 mg/ml solution of test compound, zones of inhibition
Procedure: (§1) Zones of inhibition are recorded.

[7] = system: Pasteurella multocida 31081B; test: as above; format: cell-based; conditions: disks soaked in 2.5 mg/ml solution of test compound, zones of inhibition
Procedure: as §1

[8] = system: Clostridium perfringens ATCC 13124; format: cell-based; conditions: 18 hours incubation
Peptococcus magnus = test: In vitro antibacterial activity, standard agar dilution method (Table II); format: cell-based; conditions: 18 hours incubation
Procedure: (§2) The in vitro antibacterial activity of LL-E19020α and β was determined against a spectrum of gram-positive and gram-negative bacteria by a standard agar dilution method. Mueller-Hinton agar containing 5% sheep blood and two-fold decreasing concentrations of either LL-E19020α or β were poured into petri dishes. The agar surfaces were inoculated with 1 to 5x10⁴ colony forming units of bacteria by means of the Steers replicating device. The lowest concentration of antibiotic that inhibited growth of a bacterial strain after 18 hours incubation was recorded as the minimal inhibitory concentration for that strain.

[9] = system: Streptococcus sp. (β-hemolytic); test: as above; format: cell-based; conditions: 18 hours incubation
Procedure: as §2

Streptococcus pneumoniae = test: as above; format: cell-based; conditions: 18 hours incubation
Procedure: as §2

[10] = system: Clostridium difficile ATCC 17858; test: as above; format: cell-based; conditions: 18 hours incubation
Procedure: as §2

Treponema hyodysenteriae [11] = test: Minimum inhibitory concentration by microdilution (Table VI); format: cell-based
Streptococcus pyogenes = test: Minimum inhibitory concentration by agar dilution (Table V); format: cell-based; conditions: Streptococcus pyogenes (2 strains tested)
Streptococcus faecalis = test: as above; format: cell-based; conditions: Streptococcus faecalis (1 strain tested)
Escherichia coli = test: as above; format: cell-based; conditions: Escherichia coli (2 strains tested)
[12] = system: Mycoplasma gallisepticum "R"; test: Minimum inhibitory concentration assay for Mycoplasma gallisepticum (microdilution, Table VI); format: cell-based; conditions: Mycoplasmoides gallisepticum
Procedure: • 1. […] Both cultures are incubated at 37°C. […] Appropriate solvent controls are also included. • 4.

[13] = single subcutaneous dose 4 mg/kg
[14] = single subcutaneous dose 16 mg/kg
[15] = single subcutaneous dose 64 mg/kg
[16] = Treponema hyodysenteriae B78 (ATCC 27164)
[17] = Treponema hyodysenteriae B204 (ATCC 31212)
[18] = 50 grams per ton of feed, Mycoplasma gallisepticum infected chicks
[19] = 100 g/ton in feed (positive control)

C/C=C\C=C\[C@@H]1O[C@](O)([C@H](CO[C@H]2C[C@@H](OC)[C@@H](O[C@@H]3C[C@@H](OC)[C@@H](O[C@H]4C[C@H](OC)[C@H](O)[C@H](C)O4)[C@H](C)O3)[C@@H](C)O2)C(=O)NC/C=C/C=C(\C)[C@@H](OC)[C@H](C)[C@H]2C[C@H](O)[C@H](/C=C/C=C/C=C/C(=O)O)O2)[C@H](OC(=O)Cc2ccccc2)[C@H](O)C1(C)C [LL-E19020α]
Survival Ratios 7 Days After Infection [1, 13]: 2/5
Survival Ratios 7 Days After Infection ([1]; single subcutaneous dose 8 mg/kg): 4/5
Survival Ratios 7 Days After Infection [1, 14]: 5/5
Survival Ratios 7 Days After Infection ([1]; single subcutaneous dose 32 mg/kg): 5/5
Survival Ratios 7 Days After Infection [1, 15]: 5/5
MIC (Streptococcus agalactiae): 2 to 8 µg/mL
ZONE SIZE (Treponema hyodysenteriae [2]; [16]): 0 mm
ZONE SIZE (Treponema hyodysenteriae [2]; [17]): 15 mm
MIC (Salmonella choleraesuis): >256 µg/mL
MIC [3]: >256 µg/mL
MIC (Pasteurella haemolytica): 16 µg/mL (≈ 13 µM)
% Mortality ([4]; 5 ppm): 2.5%
Feed/Gain ([4]; 5 ppm): 1.97
Final Weight ([4]; 5 ppm): 639.2
Lesion Scores ([4]; 5 ppm): 0.35
% Mortality ([4]; 50 ppm): 2.5%
Feed/Gain ([4]; 50 ppm): 1.80
Final Weight ([4]; 50 ppm): 699.4
Lesion Scores ([4]; 50 ppm): 0.38
Final Mean Body Weight (g) of Survivors (Mycoplasma gallisepticum; 10 g/ton in feed): 336 g
Overall % Mortality (Mycoplasma gallisepticum; 10 g/ton in feed): 41.3%
Overall Feed-to-Gain (Mycoplasma gallisepticum; 10 g/ton in feed): 1.88
Mean Air Sac Lesion Scores (Mycoplasma gallisepticum; 10 g/ton in feed): 2.04
Final Mean Body Weight (g) of Survivors (Mycoplasma gallisepticum; 50 g/ton in feed): 349 g
Overall % Mortality (Mycoplasma gallisepticum; 50 g/ton in feed): 36.3%
Overall Feed-to-Gain (Mycoplasma gallisepticum; 50 g/ton in feed): 1.84
Mean Air Sac Lesion Scores (Mycoplasma gallisepticum; 50 g/ton in feed): 2.11
feed to gain ratios compared with infected nonmedicated chicks (Mycoplasma gallisepticum; [18]): better feed to gain ratios
mortality compared with infected nonmedicated chicks (Mycoplasma gallisepticum; [18]): less mortality
weight gain compared with infected nonmedicated chicks (Mycoplasma gallisepticum; [18]): better weight gain
MIC (Staphylococcus aureus): ≧256 µg/ml
MIC (Streptococcus uberis): 8 µg/mL (≈ 6.52 µM)
Survival Ratios 7 Days After Infection [5, 13]: 2/5
Survival Ratios 7 Days After Infection [5, 14]: 3/5
Survival Ratios 7 Days After Infection [5, 15]: 3/5
Survival Ratios 7 Days After Infection ([5]; single subcutaneous dose 256 mg/kg): 3/5
ZONE SIZE [6]: 13 mm
ZONE SIZE [7]: 15 mm
Minimal Inhibitory Concentration [8]: 16 µg/mL
Minimal Inhibitory Concentration (Peptococcus magnus; Peptococcus magnus ATCC 14956): 0.12 µg/mL
Minimal Inhibitory Concentration (Peptococcus magnus; Peptococcus magnus ATCC 29328): 0.12 µg/mL
Minimal Inhibitory Concentration ([9]; Streptococcus sp. (β-hemolytic) C203): 0.5 µg/mL
Minimal Inhibitory Concentration ([9]; Streptococcus sp. (β-hemolytic) VGH-84-60): 0.25 µg/mL
Minimal Inhibitory Concentration ([9]; Streptococcus sp. (β-hemolytic) VGH-84-61): 1 µg/mL
Minimal Inhibitory Concentration ([9]; Streptococcus sp. (β-hemolytic) VGH-84-62): 1 µg/mL
Minimal Inhibitory Concentration ([9]; Streptococcus sp. (β-hemolytic) VGH-84-63): 0.12 µg/mL
Minimal Inhibitory Concentration ([9]; Streptococcus sp. (β-hemolytic) VGH-84-64): 0.12 µg/mL
Minimal Inhibitory Concentration (Streptococcus pneumoniae; Streptococcus pneumoniae SVI): 1 µg/mL
Minimal Inhibitory Concentration (Streptococcus pneumoniae; Streptococcus pneumoniae VGH-84-56): 1 µg/mL
Minimal Inhibitory Concentration (Streptococcus pneumoniae; Streptococcus pneumoniae VGH-84-57): 2 µg/mL
Minimal Inhibitory Concentration (Streptococcus pneumoniae; Streptococcus pneumoniae VGH-84-58): 0.25 µg/mL
Minimal Inhibitory Concentration (Streptococcus pneumoniae; Streptococcus pneumoniae VGH-84-59): 0.25 µg/mL
Minimal Inhibitory Concentration [10]: 4 µg/mL
MIC (Treponema hyodysenteriae [11]; [16]): 1 µg/mL (≈ 0.815 µM)
MIC (Treponema hyodysenteriae [11]; [17]): 1 µg/mL (≈ 0.815 µM)
MIC (Streptococcus pyogenes): 2 µg/mL (≈ 1.63 µM)
MIC (Streptococcus faecalis): 8 µg/mL (≈ 6.52 µM)
MIC (Escherichia coli): ≧256 µg/ml

CN(C)[C@@H]1C(O)=C(C(N)=O)C(=O)[C@@]2(O)C(O)=C3C(=O)c4c(O)ccc(Cl)c4[C@@](C)(O)[C@H]3C[C@@H]12 [CTC, Chlortetracycline, reference compound]
MIC [12]: 0.5 µg/mL (≈ 1.04 µM)
Final Mean Body Weight (g) of Survivors (Mycoplasma gallisepticum; [19]): 398 g
Overall % Mortality (Mycoplasma gallisepticum; [19]): 25.0%
Overall Feed-to-Gain (Mycoplasma gallisepticum; [19]): 1.83
Mean Air Sac Lesion Scores (Mycoplasma gallisepticum; [19]): 1.88
